Test results as given in patent publication US5496853A, “Benzoxa condensed ring compounds, process for producing the same and pharmaceutical composition comprising the same” (Teijin Limited, priority 1990, dated 1996).
Counter-ions that a name gives are not always drawn.

Biological target: T1, ACAT (Oryctolagus cuniculus, UniProt G1SFD9)
T1 construct: from tissue; host or cells: domestic rabbit intestinal mucosa, microsome fraction (105,000×g precipitate)
T1 sequence (G1SFD9 1-524): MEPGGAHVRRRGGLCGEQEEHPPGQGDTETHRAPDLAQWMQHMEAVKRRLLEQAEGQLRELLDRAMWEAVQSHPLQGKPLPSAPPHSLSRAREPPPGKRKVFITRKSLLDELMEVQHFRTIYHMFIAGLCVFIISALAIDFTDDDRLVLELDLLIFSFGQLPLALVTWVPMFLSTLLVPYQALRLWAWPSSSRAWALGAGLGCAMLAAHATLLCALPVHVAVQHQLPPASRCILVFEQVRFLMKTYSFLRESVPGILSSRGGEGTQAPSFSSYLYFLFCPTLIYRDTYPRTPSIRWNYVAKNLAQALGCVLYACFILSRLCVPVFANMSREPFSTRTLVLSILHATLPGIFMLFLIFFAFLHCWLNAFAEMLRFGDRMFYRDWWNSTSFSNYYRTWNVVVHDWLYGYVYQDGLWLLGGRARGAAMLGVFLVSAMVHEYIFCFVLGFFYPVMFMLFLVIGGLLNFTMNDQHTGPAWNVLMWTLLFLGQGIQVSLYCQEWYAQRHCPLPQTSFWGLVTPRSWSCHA
Experiment: ACAT enzyme inhibitory activity of rabbit intestinal mucosa
Format: biochemical
Settings: rabbit intestinal mucosa microsome, [1-14C] oleoyl CoA, 37° C., pH 7.4
Experimental: Measurement of ACAT enzyme inhibitory activity (measurement of ACAT enzyme inhibitory activity of rabbit intestinal mucosa)
Preparation of a domestic rabbit intestinal mucosa microsome and measurement of the ACAT enzyme activity were conducted by slightly modifying a method established by Salone and Field (see Biochemica et Biophysica, vol. 712, 557 (1982).
The supernatant was further centrifuged at 105,000×g and a temperature of 4° C. for one hour to provide a precipitate. The precipitate was resuspended in the buffer A to provide a microsome fraction.
A 1 %v/v dimethylsulfoxide solution of each specimen compound in a predetermined concentration was added to the buffer A containing 43 μM serum albumin and 0.5 mg/ml microsome fraction, and the mixture was heated at 37° C. for 5 min.
Then, 43 μM oleoyl CoA containing [1^-14 C] oleoyl CoA (3.7 kB) was added thereto, the mixture was heated at 37° C. for 10 rain, and chloroform/methanol (2/1) containing 10 mg/ml cholesteryl oleate was added thereto to terminate the reaction.
0.111 kB of [^3 H] cholesteryl oleate and 1N hydrochloric acid were added thereto, and the mixture was stirred. The cholesteryl oleate extracted into the chloroform layer was isolated by thin-layer chromatography, and the radioactivity was measured as the ACAT activity.

SMILES	IC50 [nM]
CCCCCCCCC(C)(C)C(=O)Nc1c(C)cc(C)c2c1OC(C)(C)C2 [Ex. 39]	72
Cc1cc(C)c(NC(=O)C(C)(C)CCCc2ccc(CC(C)C)cc2)c2c1CC(C)(C)O2 [Ex. 45]	28
Cc1ccc2c(c1NC(=O)NCC1(c3ccccc3)CCCC1)OC(C)(C)C2 [Ex. 3]	340
Cc1cc2nc(-c3ccccc3)oc2c(NC(=O)NCC2(c3ccccc3)CCCC2)c1C [Ex. 13]	400
Cc1cc(C)c(NC(=O)C(C)(C)CCCCCOc2ccc(N(C)C)cc2)c2c1CC(C)(C)O2 [Ex. 67]	190
Cc1cc(C)c(NC(=O)C(C)(C)CCCCCOc2ccc(Cl)cc2Cl)c2c1CC(C)(C)O2 [Ex. 63]	220
Cc1ccc(OCCCCCC(C)(C)C(=O)Nc2c(C)cc(C)c3c2OC(C)(C)C3)c(C)c1 [Ex. 64]	910
Cc1cc(C)c(NC(=O)C(C)(C)CCCCCCOc2ccc(N(C)C)cc2)c2c1CC(C)(C)O2 [Ex. 71]	130
CCCCCCCCCCCCCCCC(=O)Nc1c(C)c(Cl)c(C)c2c1OC(C)(C)C2 [Ex. 83]	72
Cc1cc(C)c(NC(=O)C(C)(C)CCCCCOc2ccc([N+](=O)[O-])cc2)c2c1CC(C)(C)O2 [Ex. 10, N-(2,2,4,6-tetramethyl-2,3-dihydrobenzofuran-7-yl)-[2,2-dimethyl-7-(4-nitrophenyloxy)]heptaneamide]	230
Cc1cc(C)c(NC(=O)C(C)(C)CCCCOCCCC(C)C)c2c1CC(C)(C)O2 [Ex. 47]	190
CCCCCCCCCCC1(C(=O)Nc2cccc3nc(-c4cccnc4)oc23)CCCC1 [Ex. 2, N-[2-(3-pyridyl)benzoxazol-7-yl]-1-decylcyclopentanecarboxamide]	830
Cc1ccc(OCCCCCC(C)(C)C(=O)Nc2c(C)cc(C)c3c2OC(C)(C)C3)cc1 [Ex. 62]	64
CCCCCCCCCCC(C)(C)C(=O)Nc1c(C)c([N+](=O)[O-])c(C)c2c1OC(C)(C)C2 [Ex. 6, N-(2,2,4,6-tetramethyl-5-nitro-2,3-dihydrobenzofuran-7-yl)-2,2-dimethyldodecaneamide]	19
Cc1cc(C)c(NC(=O)C(C)(C)CCCCCCN(C)Cc2ccccc2)c2c1CC(C)(C)O2 [Ex. 74 (HCl salt)]	330
Cc1cc(C)c(NC(=O)C(C)(C)CCCCCOc2ccc(C(C)C)cc2)c2c1CC(C)(C)O2 [Ex. 65]	86
Cc1cc(C)c(NC(=O)C(C)(C)CCCCCOCCOC(C)C)c2c1CC(C)(C)O2 [Ex. 55]	170
Cc1ccc2c(c1NC(=O)C(C)(C)CCCCOc1ccc(C(C)(C)C)cc1)OC(C)(C)C2 [Ex. 37]	340
CCCCCCCCCCCCNC(=O)Nc1c(C)ccc2c1OC(C)(C)C2 [Ex. 23]	220

SMILES	IC50 [nM]
Cc1cc(C)c(NC(=O)C(C)(C)CCCCCCNCc2ccc(Cl)cc2)c2c1CC(C)(C)O2 [Ex. 73 (HCl salt)]	340
Cc1cc(C)c(NC(=O)C(C)(C)CCCCCCOCCCC(C)C)c2c1CC(C)(C)O2 [Ex. 48]	57
COCCCCCCC(C)(C)C(=O)Nc1c(C)cc(C)c2c1OC(C)(C)C2 [Ex. 56]	330
Cc1cc(C)c(NC(=O)C(C)(C)CCCCCOCCc2ccccc2)c2c1CC(C)(C)O2 [Ex. 54]	100
Cc1cc(C)c(NC(=O)C(C)(C)CCCCCCN(C)Cc2ccc(Cl)cc2)c2c1CC(C)(C)O2 [Ex. 75]	120
Cc1cc(C)c(NC(=O)C(C)(C)CCCCCCOCC(C)(C)C)c2c1CC(C)(C)O2 [Ex. 50]	45
Cc1cc(C)c(NC(=O)C(C)(C)CCCCCOc2ccc(N)cc2)c2c1CC(C)(C)O2 [Ex. 66]	460
CCCCCCCCCCNc1ccc(C(=O)Nc2c(C)cc(C)c3c2OC(C)(C)C3)cc1 [Ex. 33]	110
Cc1cc(C)c(NC(=O)C(C)(C)CCCCCCOc2ccc(F)cc2)c2c1CC(C)(C)O2 [Ex. 70]	110
CCCCCCCCCCOc1ccc(C(=O)C(C)(C)C(=O)Nc2c(C)cc(C)c3c2OC(C)(C)C3)cc1 [Ex. 80]	40
CCCCCCCCCCOc1ccc(C(=O)CC(=O)Nc2c(C)cc(C)c3c2OC(C)(C)C3)cc1 [Ex. 88, N-(2,2,4,6-tetramethyl-2,3-dihydrobenzofuran-7-yl)3-(4-decyloxyphenyl)-3-oxpropaneamide]	110
Cc1cc(C)c(NC(=O)C(C)(C)CCCCOc2ccc(C(C)(C)C)cc2)c2c1CC(C)(C)O2 [Ex. 58]	170
CCCCCCCCCCCCCCCC(=O)Nc1c(C)cc(C)c2c1OC(C)(C)C2 [Ex. 81]	260
Cc1cc(C)c(NC(=O)C(C)(C)CCCCCCN2CCN(Cc3ccccc3)CC2)c2c1CC(C)(C)O2 [Ex. 79]	350
Cc1cc(C)c(NC(=O)C(C)(C)CCCCCCBr)c2c1CC(C)(C)O2 [Ex. 38]	180
CCCCCCOc1ccc(CCCC(C)(C)C(=O)Nc2c(C)cc(C)c3c2OC(C)(C)C3)cc1 [Ex. 46]	34
Cc1cc(C)c(NC(=O)C(C)(C)CCCCN2CCN(Cc3ccccc3)CC2)c2c1CC(C)(C)O2 [Ex. 78]	330
CCCCCCCCCCC1(C(=O)Nc2cccc3nc(-c4ccccc4)oc23)CCCC1 [Ex. 18]	500
CCCc1ccc(CCCC(C)(C)C(=O)Nc2c(C)cc(C)c3c2OC(C)(C)C3)cc1 [Ex. 44]	66

Tested on: serum cholesterol
Experiment: percentage change of serum cholesterol in cholesterol-fed rats
Format: in vivo, Male Wistar rats
Settings: Rattus norvegicus, 72 h; 1 mg/kg oral, once a day for three days, cholesterol-enriched feed, vs control
Source text: Measurement of percentage change of serum cholesterol
Male Wistar rats having a weight of 200 g were preliminarily bred for 7 days while they freely ingested a normal feed (CE-2 manufactured by CLEA Japan Inc.).
Thereafter, they were bred for 3 days while they freely ingested a feed enriched with cholesterol and fat (2% cholesterol, 1% cholic acid, 20% casein, 45% fine granulated sugar, 12% coconut oil, 4% KC flock, 1% mixed vitamin, 7% mixed mineral and 8% dried fish powder; a product of CLEA Japan Inc.). During the cholesterol loading period, the test compound of the present invention was orally administered to the above test animals at a dose of 0.1 to 10 mg per kg of the weight once a day for three days. On the other hand, the excipient alone was administered to the control animals.
After 8 hrs from the last administration, the test animals were fasted. 16 hr after the initiation of the fasting, these test animals were slaughtered. The serum cholesterol level was measured for each animal.
The results were compared with those of the control and are given as percentage serum cholesterol (%) in Table 3.
Percentage change of serum cholesterol (%)={(A-B)/B}×100
wherein A represents the total cholesterol level of serum in the group of rats to which the test compound was administered; and B represents the total cholesterol level of serum in the control group of rats.

SMILES	change in vivo at 1 mg/kg [%]
CCCOCCCCCCOc1ccc(C(=O)Nc2c(C)cc(C)c3c2OC(C)(C)C3)cc1 [Ex. 29]	-23
Cc1cc(C)c(NC(=O)C(C)(C)CCCCOc2ccc(Cl)cc2)c2c1CC(C)(C)O2 [Ex. 59]	-43
Cc1cc(C)c(NC(=O)C(C)(C)CCCc2ccc(CC(C)C)cc2)c2c1CC(C)(C)O2 [Ex. 45]	-58
Cc1cc(C)c(NC(=O)C(C)(C)CCCCCc2ccccc2)c2c1CC(C)(C)O2 [Ex. 42]	-44
Cc1cc(C)c(NC(=O)C(C)(C)CCCCCCOc2ccc(Cl)cc2)c2c1CC(C)(C)O2 [Ex. 68]	-75
CCCCCCCCCCC(C)(C)C(=O)Nc1c(C)c(N(C)C)c(C)c2c1OC(C)(C)C2 [Ex. 8, N-(5-dimethylamino-2,2,4,6-tetramethyl-2,3-dihydrobenzofuran-7-yl)-2,2-dimethyldodecaneamide]	-71
Cc1cc(C)c(NC(=O)C(C)(C)CCCCCCOc2ccc(N(C)C)cc2)c2c1CC(C)(C)O2 [Ex. 71]	-49
CCCCCCCCCCC(C)(C)C(=O)Nc1c(C)cc(C)c2c1OC(C)(C)C2 [Ex. 5, N-(2,2,4,6-tetramethyl-2,3-dihydrobenzofuran-7-yl)-2,2-dimethyldodecaneamide]	-61
Cc1ccc(OCCCCCC(C)(C)C(=O)Nc2c(C)cc(C)c3c2OC(C)(C)C3)cc1 [Ex. 62]	-18
Cc1cc(C)c(NC(=O)C(C)(C)CCCCCCOCC(C)C)c2c1CC(C)(C)O2 [Ex. 49]	-50
Cc1cc(C)c(NC(=O)C(C)(C)CCCCCOc2ccc(Cl)cc2)c2c1CC(C)(C)O2 [Ex. 61]	-64

Same assay, conditions: Rattus norvegicus, 72 h; 10 mg/kg oral, once a day for three days, cholesterol-enriched feed, vs control

SMILES	change in vivo at 10 mg/kg [%]
CCCCCCCCCCC1(C(=O)Nc2c(C)ccc3c2OC(C)(C)C3)CCCC1 [Ex. 36]	-52
Cc1cc(C)c(NC(=O)C(C)(C)CCCCOCc2ccccc2)c2c1CC(C)(C)O2 [Ex. 53]	-50
CCCCCCCCCCC1(C(=O)Nc2c(C)c(C)cc3nc(-c4ccccc4)oc23)CCCC1 [Ex. 20]	-46
Cc1cc(C)c(NC(=O)C(C)(C)CCCCCCOCC(C)(C)C)c2c1CC(C)(C)O2 [Ex. 50]	-54
Cc1cc(C)c(NC(=O)C(C)(C)CCCCOc2ccc(C(C)(C)C)cc2)c2c1CC(C)(C)O2 [Ex. 58]	-27
Cc1cc(C)c(NC(=O)C(C)(C)CCCCN2CCN(Cc3ccccc3)CC2)c2c1CC(C)(C)O2 [Ex. 78]	-43
